Test results: patent US20260355196A1, “INHIBITORS AND DEGRADERS OF PIP4K PROTEIN” (Larkspur Biosciences, Inc., priority 2023, published 2026)

The compounds below were run against T1, PIP4K2C (Homo sapiens, UniProt Q8TBX8) (assay: HiBiT PIP4K2C degradation assay in MOLT-4 cells (endogenous PIP4K2C C-terminally tagged with HiBiT)). Conditions: 6 hours of incubation time, rather than 24 hours; MOLT-4, top concentration 10 micromolar; read-out: HiBIT-degradation MOLT4 PIP4k2C DC50 (6 hours, marked *).
T1 sequence (Q8TBX8 1-421): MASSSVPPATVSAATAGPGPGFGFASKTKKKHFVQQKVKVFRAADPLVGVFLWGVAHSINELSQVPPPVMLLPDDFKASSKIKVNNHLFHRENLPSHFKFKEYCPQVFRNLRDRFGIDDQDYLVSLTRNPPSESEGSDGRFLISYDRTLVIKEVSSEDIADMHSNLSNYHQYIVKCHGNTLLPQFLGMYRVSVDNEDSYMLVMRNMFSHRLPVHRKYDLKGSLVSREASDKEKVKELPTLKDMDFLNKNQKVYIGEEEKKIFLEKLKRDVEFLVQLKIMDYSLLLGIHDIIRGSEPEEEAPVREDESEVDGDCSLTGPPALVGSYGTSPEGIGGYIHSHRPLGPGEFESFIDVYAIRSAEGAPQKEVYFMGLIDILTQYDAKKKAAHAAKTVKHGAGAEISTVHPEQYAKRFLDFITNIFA
Type: cell-based
Set-up: untagged in primary human PBMCs and monocyte-derived dendritic cells
Summary of the method: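 Endogenous PIP4K2C was C-terminally HiBiT-tagged by CRISPR-Cas9 in MOLT-4 cells, which were treated with a 10-point, 3-fold dilution series from 10 micromolar in duplicate for 24 or 6 hours at 37 C. Remaining protein was read by HiBiT lytic luminescence, and DC50 came from a Hill fit.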

DC50, < 500 nM:
O=C1CCC(Nc2ccc(N3CCN([C@H]4CC[C@H](NC(=O)[C@H]5CC[C@H](Nc6ncc(F)c(-c7cccc(C(=O)N8CC[C@H](O)C8)c7)n6)CC5)CC4)CC3)c(F)c2)C(=O)N1 (stereo partly drawn) [Compound 509, trans-N-(trans-4-(4-(4-((2,6-dioxopiperidin-3-yl)amino)-2-fluorophenyl)piperazin-1-yl)cyclohexyl)-4-((5-fluoro-4-(3-((S)-3-hydroxypyrrolidine-1-carbonyl)phenyl)pyrimidin-2-yl)amino)cyclohexane-1-carboxamide]
O=C1CCC(Nc2ccc(C3CCN([C@H]4CC[C@H](NC(=O)[C@H]5CC[C@H](Nc6ncc(F)c(-c7cccc(C(=O)N8CC[C@H](O)C8)c7)n6)CC5)CC4)CC3)c(F)c2)C(=O)N1 (stereo partly drawn) [Compound 510, trans-N-(trans-4-(4-(4-((2,6-dioxopiperidin-3-yl)amino)-2-fluorophenyl)piperidin-1-yl)cyclohexyl)-4-((5-fluoro-4-(3-((S)-3-hydroxypyrrolidine-1-carbonyl)phenyl)pyrimidin-2-yl)amino)cyclohexane-1-carboxamide]
O=C1CCC(Nc2ccc(C3CCN([C@H]4CC[C@H](C(=O)N[C@H]5CC[C@H](Nc6ncc(F)c(-c7cccc(C(=O)N8CC[C@H](O)C8)c7)n6)CC5)CC4)CC3)c(F)c2)C(=O)N1 (stereo partly drawn) [Compound 511, trans-4-(4-(4-((2,6-dioxopiperidin-3-yl)amino)-2-fluorophenyl)piperidin-1-yl)-N-(trans-4-((5-fluoro-4-(3-((S)-3-hydroxypyrrolidine-1-carbonyl)phenyl)pyrimidin-2-yl)amino)cyclohexyl)cyclohexane-1-carboxamide]
Cn1nc(N2CCC(=O)NC2=O)c2cc(F)c(C3CCN([C@H]4CC[C@H](C(=O)N[C@H]5CC[C@H](Nc6ncc(F)c(-c7cccc(-n8ccccc8=O)c7)n6)CC5)CC4)CC3)cc21 [Compound 512, trans-4-(4-(3-(2,4-dioxotetrahydropyrimidin-1(2H)-yl)-5-fluoro-1-methyl-1H-indazol-6-yl)piperidin-1-yl)-N-(trans-4-((5-fluoro-4-(3-(2-oxopyridin-1(2H)-yl)phenyl)pyrimidin-2-yl)amino)cyclohexyl)cyclohexane-1-carboxamide]
O=C1CCC(Nc2ccc(N3CCN(CC4CCN(C(=O)[C@H]5CC[C@H](Nc6ncc(F)c(-c7cccc(N8CCCCC8)c7)n6)CC5)CC4)CC3)c(F)c2)C(=O)N1 (stereo partly drawn) [Compound 513, trans-3-((3-fluoro-4-(4-((1-(4-((5-fluoro-4-(3-(piperidin-1-yl)phenyl)pyrimidin-2-yl)amino)cyclohexane-1-carbonyl)piperidin-4-yl)methyl)piperazin-1-yl)phenyl)amino)piperidine-2,6-dione]
O=C1CC[C@H](Nc2ccc(C3CCN(CC4(O)CCN(C(=O)[C@H]5CC[C@H](Nc6ncc(F)c(-c7cccc(N8CCCCC8)c7)n6)CC5)CC4)CC3)c(F)c2)C(=O)N1 [Compound 514, trans-3-((3-fluoro-4-(1-((1-(4-((5-fluoro-4-(3-(piperidin-1-yl)phenyl)pyrimidin-2-yl)amino)cyclohexane-1-carbonyl)-4-hydroxypiperidin-4-yl)methyl)piperidin-4-yl)phenyl)amino)piperidine-2,6-dione]
O=C1CCC(Nc2ccc(C3CCN([C@H]4CC[C@H](NC(=O)[C@H]5CC[C@H](Nc6ncc(F)c(-c7cccc(N8CCCCC8)c7)n6)CC5)CC4)CC3)c(F)c2)C(=O)N1 (stereo partly drawn) [Compound 515, trans-N-(trans-4-(4-(4-((2,6-dioxopiperidin-3-yl)amino)-2-fluorophenyl)piperidin-1-yl)cyclohexyl)-4-((5-fluoro-4-(3-(piperidin-1-yl)phenyl)pyrimidin-2-yl)amino)cyclohexane-1-carboxamide]
